Assay results reported in patent publication US10233182B2, “Substituted spirocyclic inhibitors of autotaxin” (X-Rx, Inc., priority 2014, dated 2019).
Structures can show the parent of a compound that is named as a salt.

Target: Autotaxin (Homo sapiens (Human), UniProt Q13822)
Assay: Autotaxin LPC Cascade Assay
Type: biochemical
Conditions: Autotaxin 5 nM, LPC 100 μM, choline oxidase/HRP/Ampliflu Red fluorescence read-out, 2% DMSO, RT; read-out: IC50 ATX Activity
Procedure, shortened: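 Choline liberated from LPC by autotaxin during 1 h, after a 10-min RT compound preincubation, was converted through choline oxidase/HRP to a fluorescent Ampliflu Red product.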

| Compound | IC50 [nM] |
| --- | --- |
| CO[C@@H](C)[C@@H](NC(=O)c1cccc(C)c1)C(=O)N1CCC2(CC1)C(=O)N(C)CN2c1ccccc1 [Example 134, N-((2R,3S)-3-Methoxy-1-(3-methyl-4-oxo-1-phenyl-1,3,8-triazaspiro[4.5]decan-8-yl)-1-oxobutan-2-yl)-3-methylbenzamide] | < 500 |
| CN1C(=O)N(c2ccc3[nH]ncc3c2)C2(CCN(C(=O)CNC(=O)c3cc(C(F)(F)F)ccc3F)CC2)C1=O [Example 70, N-(2-(1-(1H-Indazol-5-yl)-3-methyl-2,4-dioxo-1,3,8-triazaspiro[4.5]decan-8-yl)-2-oxoethyl)-2-fluoro-5-(trifluoromethyl)benzamide] | ≥ 1000 |
| C[C@@H](NC(=O)c1cc(C(F)(F)F)ccc1F)C(=O)N1CCC2(CC1)C(=O)N(C)C(=O)N2c1ccc2[nH]ncc2c1 [Example 72, (R)—N-(1-(1-(1H-Indazol-5-yl)-3-methyl-2,4-dioxo-1,3,8-triazaspiro[4.5]decan-8-yl)-1-oxopropan-2-yl)-2-fluoro-5-(trifluoromethyl)benzamide] | ≥ 1000 |
| Cc1ccc(F)c(C(=O)N[C@@H](C(=O)N2CCC3(CC2)C(=O)N(C)C(=O)N3c2ccc3[nH]ncc3c2)C(C)C)c1 [Example 56, (R)—N-(1-(1-(1H-Indazol-5-yl)-3-methyl-2,4-dioxo-1,3,8-triazaspiro[4.5]decan-8-yl)-3-methyl-1-oxobutan-2-yl)-2-fluoro-5-methylbenzamide] | < 500 |
| CCc1ccc(F)c(C(=O)N[C@@H](C(=O)N2CCC3(CC2)C(=O)N(C)CN3c2ccc(C(=O)O)cc2)C(C)C)c1 [Example 152, (R)-4-(8-(2-(5-Ethyl-2-fluorobenzamido)-3-methylbutanoyl)-3-methyl-4-oxo-1,3,8-triazaspiro[4.5]decan-1-yl)benzoic Acid] | < 500 |
| CC(C)[C@@H](NC(=O)c1cc(C(F)(F)F)ccc1F)C(=O)N1CCC2(CC1)C(=O)N(C)C(=O)N2[C@H](C)c1ccccc1 [Example 80, 2-Fluoro-N—((R)-3-methyl-1-(3-methyl-2,4-dioxo-1-((R)-1-phenylethyl)-1,3,8-triazaspiro[4.5]decan-8-yl)-1-oxobutan-2-yl)-5-(trifluoromethyl)benzamide] | ≥ 1000 |
| Cc1cc(C(=O)N[C@@H](C(=O)N2CCC3(CC2)C(=O)N(C)CN3c2ccccc2)C(C)C)ccc1F [Example 139, (R)-4-Fluoro-3-methyl-N-(3-methyl-1-(3-methyl-4-oxo-1-phenyl-1,3,8-triazaspiro[4.5]decan-8-yl)-1-oxobutan-2-yl)benzamide] | < 500 |
| CCc1ccc(F)c(C(=O)N[C@@H](C(=O)N2CCC3(CC2)C(=O)N(C)CN3c2ccc(NS(C)(=O)=O)cc2)C(C)C)c1 [Example 173, (R)-5-Ethyl-2-fluoro-N-(3-methyl-1-(3-methyl-1-(4-(methylsulfonamido)phenyl)-4-oxo-1,3,8-triazaspiro[4.5]decan-8-yl)-1-oxobutan-2-yl)benzamide] | < 500 |
| CC(C)[C@@H](NC(=O)c1cc(OC(F)F)ccc1F)C(=O)N1CCC2(CC1)C(=O)N(C)C(=O)N2c1ccc2[nH]ncc2c1 [Example 64, (R)—N-(1-(1-(1H-Indazol-5-yl)-3-methyl-2,4-dioxo-1,3,8-triazaspiro[4.5]decan-8-yl)-3-methyl-1-oxobutan-2-yl)-5-(difluoromethoxy)-2-fluorobenzamide] | < 500 |
| CC(C)[C@@H](NC(=O)c1cc(C(F)(F)F)ccc1F)C(=O)N1CCC2(CC1)C(=O)N(C)C(=O)N2c1ccc2oc(=O)[nH]c2c1 [Example 29, (R)-2-Fluoro-N-(3-methyl-1-(3-methyl-2,4-dioxo-1-(2-oxo-2,3-dihydrobenzo[d]oxazol-5-yl)-1,3,8-triazaspiro[4.5]decan-8-yl)-1-oxobutan-2-yl)-5-(trifluoromethyl)benzamide] | 500 to 1000 |
| Cc1nc2ccc(CN3C(=O)N(C)C(=O)C34CCN(C(=O)[C@H](NC(=O)c3cc(C(F)(F)F)ccc3F)C(C)C)CC4)cc2[nH]1 [Example 106, (R)-2-Fluoro-N-(3-methyl-1-(3-methyl-1-((2-methyl-1H-benzo[d]imidazol-6-yl)methyl)-2,4-dioxo-1,3,8-triazaspiro[4.5]decan-8-yl)-1-oxobutan-2-yl)-5-(trifluoromethyl)benzamide] | ≥ 1000 |
| Cc1cccc(C(=O)N[C@@H](C(=O)N2CCC3(CC2)C(=O)N(C)CN3c2ccccc2)C2CCCCC2)n1 [Example 131, (R)—N-(1-Cyclohexyl-2-(3-methyl-4-oxo-1-phenyl-1,3,8-triazaspiro[4.5]decan-8-yl)-2-oxoethyl)-6-methylpicolinamide trifluoroacetic Acid Salt] | < 500 |
| CC(C)[C@@H](NC(=O)c1cc(C(F)(F)F)ccc1F)C(=O)N1CCC2(CC1)C(=O)N(C)C(=O)N2c1ccc(OC(F)(F)F)cc1 [Example 26, (R)-2-Fluoro-N-(3-methyl-1-(3-methyl-2,4-dioxo-1-(4-(trifluoromethoxy)phenyl)-1,3,8-triazaspiro[4.5]decan-8-yl)-1-oxobutan-2-yl)-5-(trifluoromethyl)benzamide] | < 500 |
| CCc1ccc(F)c(C(=O)N[C@@H](C(=O)N2CCC3(CC2)C(=O)N(C)C(=O)N3c2ccc(OC)cc2)[C@@H](C)OC)c1 [Example 40, 5-Ethyl-2-fluoro-N-((2R,3R)-3-methoxy-1-(1-(4-methoxyphenyl)-3-methyl-2,4-dioxo-1,3,8-triazaspiro[4.5]decan-8-yl)-1-oxobutan-2-yl)benzamide] | < 500 |
| CC(C)[C@@H](NC(=O)c1cc(C(F)(F)F)ccc1F)C(=O)N1CCC2(CC1)C(=O)N(CCN(C)C)CN2c1ccc(C(=O)O)cc1 [Example 238, (R)-4-(3-(2-(Dimethylamino)ethyl)-8-(2-(2-fluoro-5-(trifluoromethyl)benzamido)-3-methylbutanoyl)-4-oxo-1,3,8-triazaspiro[4.5]decan-1-yl)benzoic Acid trifluoroacetic Acid Salt] | < 500 |
| Cc1ccc(C(F)(F)F)cc1C(=O)N[C@@H](C(=O)N1CCC2(CC1)C(=O)N(C)CN2c1ccc(C(=O)O)cc1)C(C)C [Example 161, (R)-4-(3-Methyl-8-(3-methyl-2-(2-methyl-5-(trifluoromethyl)benzamido)butanoyl)-4-oxo-1,3,8-triazaspiro[4.5]decan-1-yl)benzoic Acid] | 500 to 1000 |
| CC(C)[C@H](NC(=O)c1cc(C(F)(F)F)ccc1F)C(=O)N1CCC2(CC1)C(=O)N(C)C(=O)N2c1ccc2[nH]ncc2c1 [Example 69, (S)—N-(1-(1-(1H-Indazol-5-yl)-3-methyl-2,4-dioxo-1,3,8-triazaspiro[4.5]decan-8-yl)-3-methyl-1-oxobutan-2-yl)-2-fluoro-5-(trifluoromethyl)benzamide] | ≥ 1000 |
| Cc1cccc(C(=O)N[C@@H](C(=O)N2CCC3(CC2)C(=O)N(C)C(=O)N3c2ccccc2)C(C)C)c1F [Example 3, (R)-2-Fluoro-3-methyl-N-(3-methyl-1-(3-methyl-2,4-dioxo-1-phenyl-1,3,8-triazaspiro[4.5]decan-8-yl)-1-oxobutan-2-yl)benzamide] | 500 to 1000 |
| CC(C)[C@@H](NC(=O)c1cc(C(F)(F)F)ccc1F)C(=O)N1CCC2(CC1)C(=O)N(CCN(C)C)C(=O)N2c1ccc(C(=O)O)cc1 [Example 237, (R)-4-(3-(2-(Dimethylamino)ethyl)-8-(2-(2-fluoro-5-(trifluoromethyl)benzamido)-3-methylbutanoyl)-2,4-dioxo-1,3,8-triazaspiro[4.5]decan-1-yl)benzoic Acid trifluoroacetic Acid Salt] | < 500 |
